Results reported in patent US8129355B2, “Ketone ligands for modulating the expression of exogenous genes via an ecdysone receptor complex” (priority 2002, dated 2012).
Where two headings read alike, the source gives them in different places.

Experiments:
[1] = target: T1, Bombyx mori EcR (VP16 fusion, switch construct CVBE) with 6XEcRE LacZ reporter (Bombyx mori, UniProt P49881); assay: Z3 assay: β-galactosidase (LacZ) reporter gene fold induction in stably transformed human 293 kidney cells (clone Z3); format: cell-based
T1 construct: expressed in transfected cells; host or cells: Human 293 kidney (HEK-293) cells, retrovirally infected, clone Z3
T1 sequence (P49881 86-606 limits assumed): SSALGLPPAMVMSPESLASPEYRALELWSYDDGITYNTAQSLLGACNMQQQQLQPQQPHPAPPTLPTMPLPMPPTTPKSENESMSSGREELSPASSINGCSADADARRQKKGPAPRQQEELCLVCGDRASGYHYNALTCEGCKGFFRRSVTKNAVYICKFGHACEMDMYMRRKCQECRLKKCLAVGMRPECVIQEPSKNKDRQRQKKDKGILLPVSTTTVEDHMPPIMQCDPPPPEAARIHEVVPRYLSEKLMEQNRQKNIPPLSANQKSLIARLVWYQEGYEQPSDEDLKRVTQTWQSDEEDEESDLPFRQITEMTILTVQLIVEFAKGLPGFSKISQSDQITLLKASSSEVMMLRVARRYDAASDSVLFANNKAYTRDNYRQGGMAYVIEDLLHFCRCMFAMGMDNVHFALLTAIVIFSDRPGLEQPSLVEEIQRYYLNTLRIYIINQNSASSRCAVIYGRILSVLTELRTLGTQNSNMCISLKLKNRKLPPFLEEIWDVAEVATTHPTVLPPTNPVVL
T1 sequence (P19793 1-462 partner): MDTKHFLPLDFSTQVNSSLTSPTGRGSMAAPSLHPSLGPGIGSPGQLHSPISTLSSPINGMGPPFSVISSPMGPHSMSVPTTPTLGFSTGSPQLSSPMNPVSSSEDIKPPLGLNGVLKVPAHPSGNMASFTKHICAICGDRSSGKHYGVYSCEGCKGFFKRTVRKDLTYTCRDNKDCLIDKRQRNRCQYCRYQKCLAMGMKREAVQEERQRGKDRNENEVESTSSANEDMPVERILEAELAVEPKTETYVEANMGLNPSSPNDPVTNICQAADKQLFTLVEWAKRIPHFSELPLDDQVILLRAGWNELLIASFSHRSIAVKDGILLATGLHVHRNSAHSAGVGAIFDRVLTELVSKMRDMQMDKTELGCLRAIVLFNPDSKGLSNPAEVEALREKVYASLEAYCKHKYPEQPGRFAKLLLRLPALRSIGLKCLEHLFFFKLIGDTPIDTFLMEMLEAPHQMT
Procedure, shortened: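 β-Galactosidase read 48 h after dosing by bioluminescent assay; ligand added at 33 μM with DMSO held at 0.03%. The cells are stable 293 clone Z3, expressing a CMV-driven VP16 fusion of Bombyx mori EcR residues 26-546 plus six EcRE copies upstream of lacZ.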

[2] = target: T2, Gal4 DBD/AaEcR (DEF) with VP16-βRXR-E (Aedes aegypti, UniProt P49880); assay: cell-based; format: cell-based; conditions: for Fold Induction Average, AA_3T3 Assay (33 μM): single dose 33 μM, RLU ligand treated / RLU DMSO treated cells; for LC50 (half-maximal ligand concentration for reporter induction): average, dose response 33 μM to 0.01 μM, three-parameter logistic model, read-out: AA_3T3 LC50; for AA_3T3 Rel Max FI: maximum fold induction at any concentration relative to that of GS-E ligand
T2 construct: The wildtype D, E, and F domains from mosquito Aedes aegypti EcR (“AaEcR-DEF”); expressed in transfected cells; host or cells: 3T3 cells, transient transfection (Superfect)
T2 sequence (P28704 286-520 A311G/G315S/G445S/I449V): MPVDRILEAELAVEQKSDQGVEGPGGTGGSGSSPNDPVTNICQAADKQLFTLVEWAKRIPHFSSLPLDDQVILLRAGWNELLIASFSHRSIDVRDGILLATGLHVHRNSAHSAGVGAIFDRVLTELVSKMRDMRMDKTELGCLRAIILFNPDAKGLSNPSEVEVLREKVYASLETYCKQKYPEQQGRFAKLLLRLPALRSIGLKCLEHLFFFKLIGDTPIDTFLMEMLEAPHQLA
T2 sequence (P49880 405-776): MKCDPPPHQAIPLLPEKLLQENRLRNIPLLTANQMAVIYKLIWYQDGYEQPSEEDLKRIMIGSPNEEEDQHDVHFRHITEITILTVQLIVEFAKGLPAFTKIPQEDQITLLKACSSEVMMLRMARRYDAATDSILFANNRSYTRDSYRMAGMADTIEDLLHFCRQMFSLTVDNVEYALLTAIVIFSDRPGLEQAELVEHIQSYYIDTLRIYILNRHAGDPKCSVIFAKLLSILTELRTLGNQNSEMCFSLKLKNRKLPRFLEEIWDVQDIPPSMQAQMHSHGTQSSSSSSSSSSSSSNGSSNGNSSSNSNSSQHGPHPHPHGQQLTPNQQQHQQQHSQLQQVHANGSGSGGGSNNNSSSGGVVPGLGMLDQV
Method: 3T3 cells were trypsinized and plated at 2.5×10^3 cells/well on a 96-well plate. After incubation for 24 h at 37° C. under 5% CO2, cells were transfected with the Gal4 DBD/AaEcR (DEF) gene expression cassette and the reporter plasmid, pFRLuc, containing a 5XGAL4 response element and the firefly luciferase gene in serum free media using Superfect (Qiagen). After transfection for 4 h at 37° C., the cells were treated with ligand in serum media. […] Single dose testing was performed at 33 μM.

[3] = single dose 33 μM; ligand treated / DMSO treated cells
[4] = maximum fold induction at any concentration relative to that of GS-E ligand
[5] = read-out: Fold Induction Average, Z3 Assay (33 μM)
[6] = read-out: Z3 LC50; average; dose response, three-parameter logistic model
[7] = average; dose response, three-parameter logistic model; read-out: Z3 LC50

Row | SMILES | Fold Induction Average, Z3 Assay (33 μM) [1, 3] | Fold Induction Average, AA_3T3 Assay (33 μM) [2] | Z3 Rel Max FI [1, 4] | fold induction at 33 µM [1, 5] | CC50 [1, 6] | CC50 [1, 7] | LC50 (half-maximal ligand concentration for reporter induction) [2] | AA_3T3 Rel Max FI [2] | fold induction at 33 µM ([1]; single dose 33 μM; ligand treated / DMSO treated cells; read-out: Fold Induction Average, Z3 Assay (33 μM)) | fold induction at 33 µM ([2]; NIH3T3, read-out: Fold Induction Average, AA_3T3 Assay (33 μM))
1 | CCOC(=O)C(=O)N1CCCC(NC(=O)c2cccc(OC)c2C)(C(=O)c2cc(C)cc(C)c2)C1 (racemic) [Example 154] | 7 | 2 | – | – | – | – | – | – | – | –
2 | COc1cccc(C(=O)NC2(C(=O)c3cc(F)c(F)c(OC)c3)CCCCC2)c1C [Example 68] | – | – | 0.70 | 1010 | 2.83 µM | – | – | – | – | –
3 | COc1cccc(C(=O)NC2(C(=O)c3ccccc3)CCCCC2)c1C [Example 69] | – | – | 0.56 | 1030 | 7.52 µM | – | – | – | – | –
4 | COc1ccccc1C(=O)C1(NC(=O)c2cccc(OC)c2C)CCCCCC1 [Example 70] | 831 | 1878 | 0.78 | – | – | 1.94 µM | 3.21 µM | 0.48 | – | –
5 | COc1cccc(C(=O)NC2(C(=O)c3cc(C)cc(C)c3)CCCCCC2)c1C [Example 71] | 952 | 1277 | 0.69 | – | – | 1.61 µM | 8.18 µM | 0.42 | – | –
6 | COc1ccccc1C(=O)C(C)(NC(=O)c1cccc(OC)c1C)c1ccc(F)cc1 (stereo not shown) [Example 72] | 1 | 3 | – | – | – | – | – | – | – | –
7 | COc1ccccc1C(=O)C(C)(C)NC(=O)c1cccc(OC)c1C [Example 74] | 18 | 4 | – | – | – | – | – | – | – | –
8 | COc1cccc(C(=O)NC(C)(C)C(=O)c2cc(C)cc(C)c2)c1C [Example 75] | 312 | 161 | 0.17 | – | – | ~10 µM | > 33 µM | 0.02 | – | –
9 | COc1cccc(C(=O)NC(C)(C)C(=O)c2ccccc2)c1C [Example 76] | 1 | – | 0.00 | – | – | > 33 µM | – | – | – | –
10 | CCC(CC)(NC(=O)c1cccc(OC)c1C)C(=O)c1ccc(C)cc1 [Example 77] | – | 1 | 0.04 | – | – | 32.2 µM | – | – | – | –
11 | CCC(CC)(NC(=O)c1cccc(OC)c1C)C(=O)c1ccccc1 [Example 78] | – | 14 | 0.06 | – | – | > 33 µM | > 33 µM | 0.00 | – | –
12 | COc1cccc(C(=O)NC2(C(=O)c3ccc(C)cc3)CCCC2)c1C [Example 79] | – | 12 | 0.12 | – | – | 34.4 µM | > 33 µM | 0.00 | – | –
13 | COc1cccc(C(=O)C(C)(C)NC(=O)c2ccccc2OC)c1 [Example 117] | 1 | – | – | – | – | – | – | – | – | –
14 | CCCCC(=O)C1(NC(=O)c2cccc(OC)c2C)CCCCC1 [Example 120] | – | – | 0.36 | 791 | 6.33 µM | – | – | – | – | –
15 | O=C(NC1(C(=O)c2ccccc2)CCCC1)c1ccccc1 [Example 139] | – | 2 | 0.00 | – | – | > 33 µM | – | – | – | –
16 | COc1cccc(C(=O)NC2(C(=O)c3ccccc3)CCCC2)c1 [Example 141] | – | 1 | 0.00 | – | – | > 33 µM | – | – | – | –
17 | CCc1c(OC)cccc1C(=O)NC1(C(=O)c2cc(C)cc(C)c2)CCCCC1 [Example 143] | – | 1929 | 0.85 | – | – | 1.81 µM | 2.81 µM | 0.59 | – | –
18 | CCc1c(OC)cccc1C(=O)NC1(C(=O)c2cc(C)cc(C)c2)CCCC1 [Example 144] | – | 2339 | 0.86 | – | – | 2.15 µM | 2.67 µM | 0.70 | – | –
19 | COc1cccc(C(=O)NC2(C(=O)c3cc(C)cc(C)c3)CCN(C(C)=O)CC2)c1C [Example 149] | – | – | – | – | – | – | – | – | 2 | 2
20 | CCNC(=O)N1CCC(NC(=O)c2cccc(OC)c2C)(C(=O)c2cc(C)cc(C)c2)CC1 [Example 157] | 2 | 1 | – | – | – | – | – | – | – | –
